Test systems include MOLT-4 leukemia; OVCAR-8 ovarian; COLO 205 colon; OVCAR-4 ovarian; IGROV1 ovarian; ACHN renal; SW-620 colon; A498 renal; OVCAR-3 ovarian.
What all share (assay): NCI-60 cell line screen, 48 h

Where “and” joins values, the source holds several entries; their conditions need not be identical. Equal values may be shown once.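 Each compound was tested at five concentrations against cells in 96-well plates for 48 hours. GI50 = concentration required for 50% inhibition of growth. TGI denotes the concentration required for complete inhibition of growth.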

Regarding `CC12OC3CC(O1)C1(C=O)C4CCC5(C)C(c6ccc(=O)oc6)CCC5(O)C4CCC1(C3)O2` (configuration not stated), the TGI in the assay with MOLT-4 leukemia was 0.244 µM; in the assay with OVCAR-8 ovarian, 1.2 µM; with COLO 205 colon it was 1.69 µM; in the assay with OVCAR-4 ovarian it was 0.308 µM; in the assay with IGROV1 ovarian it was 2.44 µM; in the assay on ACHN renal, 0.348 µM. Further, the TGI in the assay with SW-620 colon came out at 1.27 µM; in the assay with A498 renal, 1.35 µM; with OVCAR-3 ovarian, 0.384 µM.

Regarding `O=C(Nc1cc(Cl)c(Cl)cc1Cl)C(=O)C(C(=O)c1ccc2ccccc2c1)C1OC(=O)c2ccccc21` (configuration not stated), the TGI in the assay with OVCAR-8 ovarian was found to be 23.6 µM; in the assay on COLO 205 colon, 69.2 µM; with IGROV1 ovarian, 44.7 µM; in the assay on ACHN renal, 39.9 µM; with SW-620 colon it was 25.6 µM; with A498 renal it was 25.8 µM. The TGI with OVCAR-3 ovarian worked out at 59.5 µM.

As to `O=C1C2Nc3ccccc3SC2C(=O)N1c1cccc([N+](=O)[O-])c1` (configuration not stated), the TGI in the assay on MOLT-4 leukemia, in the assay with OVCAR-8 ovarian, in the assay on COLO 205 colon, with OVCAR-4 ovarian, in the assay on IGROV1 ovarian and with ACHN renal was greater than 100 µM in each case. The TGI in the assay on SW-620 colon, with A498 renal and with OVCAR-3 ovarian was greater than 100 µM in each case.

Take `Cc1cc(C)c2[s+]snc2c1`: the TGI in the assay with MOLT-4 leukemia, in the assay on OVCAR-8 ovarian, in the assay on COLO 205 colon, with OVCAR-4 ovarian, with IGROV1 ovarian and with ACHN renal was greater than 100 µM in each case. Moreover, the TGI with SW-620 colon, in the assay on A498 renal and in the assay with OVCAR-3 ovarian was greater than 100 µM each time.

On to `CCc1oc2ccc(OC)c3c2c1C=CC=C3`, for which the TGI in the assay with MOLT-4 leukemia, with OVCAR-8 ovarian, in the assay with COLO 205 colon, with OVCAR-4 ovarian, in the assay with IGROV1 ovarian and in the assay with ACHN renal was greater than 100 µM each time. In addition, the TGI in the assay with SW-620 colon, in the assay on A498 renal and in the assay with OVCAR-3 ovarian was greater than 100 µM in each case.

Take `CCC[CH2][Sn]1([CH2]CCC)[O]C(=O)c2cc(C)ccc2[O]1`: the GI50 is 0.301 µM in the assay on MOLT-4 leukemia; 0.725 µM in the assay with OVCAR-8 ovarian; 0.46 µM with COLO 205 colon; 0.707 µM in the assay with OVCAR-4 ovarian; 0.924 µM in the assay with IGROV1 ovarian; 0.457 µM in the assay on ACHN renal. Moreover, the GI50 in the assay on SW-620 colon is 0.211 µM; in the assay on A498 renal it was 0.565 µM; in the assay on OVCAR-3 ovarian it was 0.614 µM. The TGI stood at 1.09 µM in the assay on MOLT-4 leukemia; 2.05 µM in the assay on OVCAR-8 ovarian; 1.5 µM in the assay on COLO 205 colon; 2.06 µM with OVCAR-4 ovarian; 2.21 µM with IGROV1 ovarian; 1.59 µM in the assay with ACHN renal. Further, the TGI is 0.574 µM with SW-620 colon, 1.79 µM in the assay with A498 renal and 1.91 µM in the assay with OVCAR-3 ovarian.

Regarding `CC(C)c1cccc(C(C)C)c1NC1=CC(=O)C(=O)c2ccccc21`, the TGI with MOLT-4 leukemia, in the assay with OVCAR-8 ovarian, in the assay on COLO 205 colon, in the assay with IGROV1 ovarian, in the assay on SW-620 colon and in the assay on A498 renal was greater than 100 µM throughout. The TGI in the assay on OVCAR-3 ovarian was greater than 100 µM.

On to `CC(C)[O-].CC(C)[O-].[O-]c1cccc2cccnc12.[O-]c1cccc2cccnc12.[Ti+4]`, for which the TGI in the assay on OVCAR-8 ovarian, in the assay on COLO 205 colon, in the assay with IGROV1 ovarian, with ACHN renal, with SW-620 colon and in the assay on OVCAR-3 ovarian was greater than 100 µM each time. Besides, the GI50 was 24.7 µM in the assay with COLO 205 colon; 88.6 µM in the assay on ACHN renal; 6.47 µM and 5.89 µM in the assay with SW-620 colon; 15.4 µM in the assay with OVCAR-3 ovarian.

As for `OC1C2C=CCC1CCC2` (configuration not stated), the TGI in the assay with MOLT-4 leukemia, in the assay on OVCAR-8 ovarian, in the assay with COLO 205 colon, with OVCAR-4 ovarian, in the assay with IGROV1 ovarian and with ACHN renal was greater than 100 µM in each case. Also, the TGI in the assay with SW-620 colon, in the assay with A498 renal and in the assay on OVCAR-3 ovarian was greater than 100 µM in each case.

Turning to `CCOC(=O)CNC(=O)C(CSC(=O)N(C)O)NC(=O)CCC(N)C(=O)O` (configuration not stated), the GI50 with MOLT-4 leukemia, in the assay on OVCAR-8 ovarian, with COLO 205 colon, in the assay on OVCAR-4 ovarian, with IGROV1 ovarian and in the assay on ACHN renal was greater than 2000 µM in each case. Also, the GI50 in the assay with SW-620 colon, in the assay on A498 renal and with OVCAR-3 ovarian was greater than 2000 µM each time. Besides, the TGI in the assay with MOLT-4 leukemia, in the assay with OVCAR-8 ovarian, in the assay with OVCAR-4 ovarian, with IGROV1 ovarian, in the assay with ACHN renal and with SW-620 colon was greater than 2000 µM each time. The TGI in the assay on A498 renal and with OVCAR-3 ovarian was greater than 2000 µM each time.

Take `C[C@]12CCCC(=O)C1C[C@H](C(=O)O)CC2` (some centres not stated): the TGI with MOLT-4 leukemia, with OVCAR-8 ovarian, in the assay with COLO 205 colon, in the assay on OVCAR-4 ovarian, in the assay on IGROV1 ovarian and in the assay on ACHN renal was greater than 100 µM each time. In addition, the TGI in the assay with SW-620 colon, in the assay with A498 renal and in the assay with OVCAR-3 ovarian was greater than 100 µM in each case.

For `NNC(=S)N/N=C/C(Cl)=C(\Cl)C(=O)O`, the TGI in the assay with MOLT-4 leukemia, in the assay with OVCAR-8 ovarian, with OVCAR-4 ovarian, in the assay on IGROV1 ovarian, in the assay on ACHN renal and in the assay on SW-620 colon was greater than 100 µM in each case. In addition, the TGI in the assay on A498 renal and in the assay on OVCAR-3 ovarian was greater than 100 µM in each case.

For `CCOc1ccc(NC(=O)CCC(=O)NN)cc1`, the TGI in the assay with MOLT-4 leukemia, in the assay with OVCAR-8 ovarian, in the assay with COLO 205 colon, in the assay with OVCAR-4 ovarian, with ACHN renal and with SW-620 colon was greater than 100 µM throughout. Further, in the assay on OVCAR-3 ovarian, the TGI is greater than 100 µM.

In the case of `O=C1CCC(=O)C(C(=O)CCC(=O)Nc2cccc(Cl)c2)C1` (configuration not stated), the TGI with MOLT-4 leukemia, in the assay with OVCAR-8 ovarian, with COLO 205 colon, in the assay on IGROV1 ovarian, with ACHN renal and in the assay with SW-620 colon was greater than 100 µM each time. The TGI in the assay on A498 renal and in the assay on OVCAR-3 ovarian was greater than 100 µM in each case.

On to `OC(c1ccccc1)c1c(-c2ccccc2)oc(-c2ccccc2)c1C(O)c1ccccc1` (configuration not stated), for which the TGI was 22 µM in the assay with MOLT-4 leukemia; 19.4 µM with COLO 205 colon; 7.99 µM in the assay with OVCAR-4 ovarian; 28.1 µM in the assay on IGROV1 ovarian; 19.1 µM with ACHN renal; 34.1 µM in the assay with SW-620 colon. Moreover, the TGI with A498 renal came to 30.4 µM; in the assay on OVCAR-3 ovarian, 18.7 µM.

In the case of `COc1cccc(Nc2nccc(Nc3ccc4[nH]ncc4c3)n2)c1`, the GI50 in the assay with MOLT-4 leukemia was 0.525 µM; with OVCAR-8 ovarian, 1.67 µM; in the assay on COLO 205 colon it was 1.57 µM; with OVCAR-4 ovarian, 1.46 µM; in the assay with SW-620 colon, 2.41 µM; with A498 renal, 1.65 µM. For the same compound, the GI50 with OVCAR-3 ovarian is 1.58 µM. The TGI was found to be 2.83 µM in the assay with MOLT-4 leukemia; 4.39 µM in the assay with OVCAR-8 ovarian; 3.26 µM with COLO 205 colon; 4.03 µM with OVCAR-4 ovarian; 6.13 µM in the assay with SW-620 colon; 5.3 µM in the assay on A498 renal. In the assay with OVCAR-3 ovarian, this compound had a TGI of 4.07 µM.

In the case of `CC(C)(C)C(=O)[CH-]C(=O)C(F)(F)C(F)(F)C(F)(F)F.CC(C)(C)C(=O)[CH-]C(=O)C(F)(F)C(F)(F)C(F)(F)F.[O-]CC1OC(O)C(O)C(O)C1O.[O-]CC1OC(O)C(O)C(O)C1O.[Ti+4]`, the TGI in the assay with MOLT-4 leukemia, in the assay with OVCAR-8 ovarian, with COLO 205 colon, in the assay on OVCAR-4 ovarian, with IGROV1 ovarian and in the assay on ACHN renal was greater than 100 µM each time. The TGI in the assay with SW-620 colon and in the assay with OVCAR-3 ovarian was greater than 100 µM throughout.

As to `CCOC(=O)C1(Cc2ccc3ccccc3c2)CCCCCN1` (configuration not stated), the TGI in the assay with MOLT-4 leukemia was 90.7 µM; in the assay with OVCAR-8 ovarian, greater than 100 µM; with COLO 205 colon, 34.4 µM; in the assay on OVCAR-4 ovarian it was greater than 100 µM; with IGROV1 ovarian it was greater than 100 µM; in the assay on ACHN renal, greater than 100 µM. Moreover, the TGI was 64.9 µM in the assay with SW-620 colon and greater than 100 µM in the assay on OVCAR-3 ovarian.

`CP(C)C.[Ag][I]`: the TGI with MOLT-4 leukemia was greater than 100 µM; in the assay on OVCAR-8 ovarian, greater than 100 µM; in the assay on COLO 205 colon, greater than 100 µM; with OVCAR-4 ovarian, 69.5 µM; in the assay with IGROV1 ovarian, greater than 100 µM; in the assay on ACHN renal, greater than 100 µM. Further, the TGI with SW-620 colon and in the assay with OVCAR-3 ovarian was greater than 100 µM throughout.

Turning to `Cc1nc(N)sc1C(=O)/C=C/c1ccc([N+](=O)[O-])cc1`, the TGI in the assay with MOLT-4 leukemia, with OVCAR-8 ovarian, in the assay with COLO 205 colon, with IGROV1 ovarian, in the assay with SW-620 colon and with A498 renal was greater than 100 µM in each case. Also, in the assay with OVCAR-3 ovarian, the TGI is greater than 100 µM.

As for `N#CC12Cc3ccc4c(c3-c3cccc(c31)CCN2C(=O)c1ccccc1)OCO4` (configuration not stated), the TGI with MOLT-4 leukemia, in the assay with OVCAR-8 ovarian, in the assay on COLO 205 colon, with IGROV1 ovarian, in the assay with ACHN renal and in the assay on SW-620 colon was greater than 100 µM in each case. Moreover, the TGI with A498 renal and in the assay with OVCAR-3 ovarian was greater than 100 µM each time.

These data come from PubChem BioAssay (NCI).
